Source: patent US20210113685A1, “POLYPEPTIDE DRUG AGAINST HEPATITIS B VIRUS PROTEIN” (priority 2011, published 2021)
Where no end group is shown, it is not given here.

Tests used:
[1] = test system: NF-κB promoter (HBx-activated); assay: Dual-luciferase reporter gene analysis (pGL3-NF-κB); format: cell-based; conditions: incubation with synthesized polypeptide 0.1-100 μM, 24 hr
Description: (§1) Two cell lines were adopted in the experiment. One is constitutive expression HBx of hepatoma cell HepG2 (stable transfected hepatoma cell HepG2 expressing HBx), and the other one is constitutive expression Hepatitis B virus complete genome of hepatoma cell HepG2.2.15 (stable transfected hepatoma cell HepG2 expressing HBV complete genome). Because HBx functions to activate the transcription factor NF-κB, it is possible to detect the inhibition of HBx at the molecular level by reporter gene-based assays. Due to the role of HBx on promoting the growth and proliferation of hepatoma cells, it can test the effects of the polypeptides on the proliferation of HepG2-X cell and HepG2.2.15 cell by (3-(4,5-dimethylthiazol-2-yl)-2,5-diphenyltetrazolium bromide (MTT).
(1) Plated the cells at exponential phase (the cells in the above Table 1) at a density 0.75×10^5 cells/ml in a 24-well plate with 500 μl per well. Ideally cells should be 90% confluent prior to transfection;
(2) Reporter gene vectors containing promoter (pGL3-NF-κB, 0.3 μg, purchased from Yuanhaoping (Tianjin) Biological Technology Co., Ltd) were transfected into cells by using lipofectamine transfection reagent, and Renilla luciferase expressing vectors (pRL-TK, 0.1 μg, purchased from Promega) were transfected as controls. Simultaneously, different amount of polypeptides plasmids from Step A (0.25 μg, 0.5 μg and 0.75 μg) or different concentrations of synthesized polypeptides from Example 1 (0.1 μM, 1 μM, 10 μM and 100 μM) were added, and repeated each concentration in three wells;
(3) After transfection for 48 hr (or after incubation with artificial synthesized polypeptide Anti-HBxP1 # for 24 hr), washed the cells with PBS for three times;
(4) Added 100 μl 1× Passive Lysis Buffer (PLB) into transfected cells per well, and lysed the cell at room temperature for 15 min. Transferred the cell lysate to a 1.5 ml Eppendorf (EP) tube;
(5) Centrifuged at 12,000 rpm for 30 min, and transferred the supernatant to a fresh EP tube;
(6) Added an aliquot of cell lysate into each EP tube with 100 μl Luciferase Assay Buffer II (LARII), and mixed well;
(7) Immediately put the EP tubes into a Luminometer (manufactured by Turner Biosystems). Within 10 sec after 2 sec balance, measured the luminescence.
(8) Added 100 μl fluorescence bleacher. Firefly luciferase was quenched, while Renilla luciferase started to react.
(9) Measured the luminescence within 10 sec.
The relative activity was the ratio of the value of the first luminescence to the value of the second luminescence.
Results shown are representative of three independent experiments according to Mean±SD, and statistical significance was calculated using Student's t test.

HepG2-X cells [2] = assay: MTT assay, HepG2-X cells; format: cell-based; conditions: synthesized polypeptide 0.1-100 μM, 48 hr
Description: as §1, with “Due to the role of HBx on promoting the growth and proliferation of hepatoma cells, it can test the effects of the polypeptides on the proliferation of HepG2-X cell and HepG2.2.15 cell by (3-(4,5-dimethylthiazol-2-yl)-2,5-diphenyltetrazolium bromide (MTT).” left out
(§2) (1) Plate the cells: suspended the cells at exponential phase (the cells in the above Table 1) in RPMI1640 or DMEM medium with 10% FBS, and plated 4000-5000 cells in a 96-well plate with 100 μl per well; Culture the cells: Within 12 hr for adhesion of cultured cells, different amount of polypeptides plasmids from Step A (0.25 μg, 0.5 μg and 0.75 μg) or different concentrations of synthesized polypeptides from Example 1 (0.1 μM, 1 μM, 10 μM and 100 μM) were transfected with 8 wells for each concentration, and were incubated for 48 hr in the same condition. 0.3 μg pEGFP-C2 plasmids and 1 μg p-Anti-HBxP1 # were cotransfected, and using a fluorescence microscope to check for cells containing the GFP plasmid after 24 hr to make sure the percentage of cells that contain GFP is over 70%; […]
(§3) (4) Comparison: Read in an ELISA reader at 490 nm to measure the absorbance for each well. […]

L-O2-X cells = assay: MTT assay, L-O2-X cells; format: cell-based; conditions: synthesized polypeptide 0.1-100 μM, 48 hr
Protocol: (§4) (1) Plate the cells: suspended the cells at exponential phase (the cells in the above Table 1) in RPMI1640 or DMEM medium with 10% FBS, and plated 4000-5000 cells in a 96-well plate with 100 μl per well; Culture the cells: Within 12 hr for adhesion of cultured cells, different amount of polypeptides plasmids from Step A (0.25 μg, 0.5 μg and 0.75 μg) or different concentrations of synthesized polypeptides from Example 1 (0.1 μM, 1 μM, 10 μM and 100 μM) were transfected with 8 wells for each concentration, and were incubated for 48 hr in the same condition. 0.3 μg pEGFP-C2 plasmids and 1 μg p-Anti-HBxP1 # were cotransfected, and using a fluorescence microscope to check for cells containing the GFP plasmid after 24 hr to make sure the percentage of cells that contain GFP is over 70%;
(§5) (2) Coloration: added 20 μl MTT solution (5 mg/ml MTT in PBS buffer (pH7.4)) for each well;
(§6) (3) Incubated for 4 hr, and carefully aspirate off the supernatant from the wells. Added 150 μl DMSO into each well, shaking for 10 min until the crystals dissolved;
(§7) (4) Comparison: Read in an ELISA reader at 490 nm to measure the absorbance for each well. Results were calculated by using Student's t-test.

HepG2.2.15 cells [3] = assay: MTT assay, HepG2.2.15 cells; format: cell-based; conditions: synthesized polypeptide 0.1-100 μM, 48 hr
Description: as §1, with “Due to the role of HBx on promoting the growth and proliferation of hepatoma cells, it can test the effects of the polypeptides on the proliferation of HepG2-X cell and HepG2.2.15 cell by (3-(4,5-dimethylthiazol-2-yl)-2,5-diphenyltetrazolium bromide (MTT).” left out
as §2, §3

HepG2 = assay: MTT assay, HepG2 cells; format: cell-based; conditions: HepG2 (no HBx); synthesized polypeptide 0.1-100 μM, 48 hr
Protocol: as §4, §5, §6, §7

L-O2 = assay: MTT assay, L-O2 cells; format: cell-based; conditions: L-O2 (no HBx); synthesized polypeptide 0.1-100 μM, 48 hr
Protocol: as §4, §5, §6, §7

HepG2-X cells [4] = assay: Inoculation experiment in nude mice, HepG2-X cells; format: in vivo
Protocol: (§8) Suspended the HepG2-X or HepG2.2.15 cells at exponential phase by treating with trypsin, and counted the number of cells to dilute to 1×10^7 cells/ml with physiological saline, and then store in the ice water. 12 Mice used were 4- to 6-week-old BALB/C females, and were randomly divided into two groups: @Control group, injected 0.2 ml diluted cells to the armpit of left forelimb for each mouse, and only injected 0.5 ml ddH2O (without polypeptide drugs); 0 experimental group (the treatment dose was 10 mg/kg), injected 0.2 ml diluted cells to the armpit of left forelimb for each mouse, and within 7 days after the injection, tumor volume (V=L×W^2×0.5) reached to 100 mm^3. And then, injected the above mentioned polypeptide drugs (dried polypeptide drug solved in 0.5 ml ddH2O) once in two day, total 10 times, and recorded the tumor volume before injection. Within 24 hr after the last dose, weighted the mice, and killed the mice to weight the tumor tissue, anti-tumor rate was calculated as follow: […]

HepG2.2.15 cells [5] = assay: Inoculation experiment in nude mice, HepG2.2.15 cells; format: in vivo
Protocol: as §8

[6] = Polypeptide drugs acute toxicity test; format: in vivo, Kunming white mice; conditions: 1 g/kg tail intravenous injection; observed 24 hr
Protocol: Control group and experimental group contained 10 Kunming white mice, with 5 females and 5 males, respectively. Experimental group injected Anti-HBxP1 # with the concentration of 1 g/kg ([…] dried polypeptide drug solved in 0.124 ml ddH2O) by tail intravenous injection; control group, injected 0.25 ml ddH2O. Consecutively observed the mice for 24 hr after injection.

## GSAVMFSSKERG [Anti-HBxP1 #]
[1]; HepG2 (no HBx)
  activity of NF-κB promoter: no effect
[1]; HepG2-X cells
  activity of NF-κB promoter: inhibits
[1]; HepG2.2.15 cells
  activity of NF-κB promoter: inhibits
[1]; L-O2 (no HBx)
  activity of NF-κB promoter: no effect
[1]; L-O2-X cells
  activity of NF-κB promoter: inhibits
HepG2-X cells [2]
  growth of the hepatoma cells (MTT assay): inhibits
L-O2-X cells
  growth of the hepatoma cells (MTT assay): inhibits
HepG2.2.15 cells [3]
  growth of the hepatoma cells (MTT assay): inhibits
HepG2
  growth of the hepatoma cells (MTT assay): no effect
L-O2
  growth of the hepatoma cells (MTT assay): no effect
HepG2-X cells [4]; 10 mg/kg, P<0.01
  growth and proliferation of HepG2-X cells in nude mice: inhibits
HepG2-X cells [4]; HepG2-X tumor, 10 mg/kg once in two day, 10 times
  Anti-tumor rate (%): 60.22%
HepG2-X cells [4]; HepG2-X tumor, 10 mg/kg once in two day, 10 times, within 24 hr after last dose
  Tumor weight (X ± S, g): 0.37 ± 0.14 g
HepG2-X cells [4]; mouse body weight after 10 mg/kg once in two day, 10 times, HepG2-X tumor
  Weight (X ± S, g) After dose: 21.08 ± 0.74 g
HepG2-X cells [4]; mouse body weight before dose, HepG2-X tumor, experimental group
  Weight (X ± S, g) Before dose: 15.75 ± 0.99 g
HepG2.2.15 cells [5]; 10 mg/kg, P<0.01
  growth and proliferation of HepG2.2.15 cells in nude mice: inhibits
HepG2.2.15 cells [5]; HepG2.2.15 tumor, 10 mg/kg once in two day, 10 times
  Anti-tumor rate (%): 41.27%
HepG2.2.15 cells [5]; HepG2.2.15 tumor, 10 mg/kg once in two day, 10 times, within 24 hr after last dose
  Tumor weight (X ± S, g): 0.37 ± 0.19 g
HepG2.2.15 cells [5]; mouse body weight after 10 mg/kg once in two day, 10 times, HepG2.2.15 tumor
  Weight (X ± S, g) After dose: 21.08 ± 0.81 g
HepG2.2.15 cells [5]; mouse body weight before dose, HepG2.2.15 tumor, experimental group
  Weight (X ± S, g) Before dose: 15.17 ± 1.17 g
[6]
  behaviors of mice (acute toxicity): do not have abnormal behaviors
  changes in weight compared with control group (acute toxicity): no abnormal changes in weight
